Earlier results as cited in PMC5278571, “Optimal doses of caspofungin during continuous venovenous hemodiafiltration in critically ill patients” (Critical Care, 2017).

Assays:
Conditions in all cases: murine model of disseminated candidiasis; cited from earlier work
Candida glabrata = system: Candida glabrata
Method: (§1) Taking into account a MIC of 0.1 mg/L [4], and using the target pharmacokinetics/pharmacodynamics (PK/PD) described for micafungin, we would have reac ...

C. parapsilosis = system: C. parapsilosis
Method: as §1

Candida albicans = system: Candida albicans
Method: as §1

## micafungin
Candida glabrata
  AUC/MIC associated with 1 log kill/24 h: 450
C. parapsilosis
  AUC/MIC associated with 1 log kill/24 h: 1185
Candida albicans
  AUC/MIC associated with 1 log kill/24 h: 865
